{"source": "patent US11390603B2", "about": "“Crystalline forms of a biphenyl compound” (THERAVANCE BIOPHARMA R&D IP, LLC, priority 2005, dated 2022)", "key": {"[1]": {"conditions": "six weeks at −20° C. (closed) and 40° C./75% RH (open and closed)", "description": "At specific intervals, the entire contents of a representative vial was analyzed by the following HPLC method: […]"}, "[2]": {"conditions": "pH 5", "description": "A solution was prepared with 0.5 mg/mL freebase equivalents (using a crystalline diphosphate salt prepared as described in Example 3) in 10 mM citrate buffered normal saline, pH 5. […] Less than 0.5% degradation was observed after storage for one month at 40° C./75% RH."}, "[3]": {"conditions": "DSC trace, 10° C./min", "description": "Differential scanning calorimetry (DSC) was performed using a TA Instruments Model Q-10 module with a Thermal Analyst controller. Data were collected and analyzed using TA Instruments Thermal Solutions software. A sample of about 1-4 mg was accurately weighed into an aluminum pan with lid. The sample was evaluated using a linear heating ramp of 10° C./min from ambient temperature to approximately 300° C. The DSC cell was purged with dry nitrogen during use."}, "[4]": {"conditions": "DMS trace", "protocol": "A dynamic moisture sorption (DMS) assessment (also known as a moisture sorption-desorption profile) was performed using a VTI atmospheric microbalance, SGA-100 system (VTI Corp., Hialeah, Fla. 33016). A sample size of approximately 10 mg was used and the humidity was set at the ambient value at the start of the analysis. A typical DMS analysis consisted of three scans: ambient to 2% relative humidity (RH), 2% RH to 90% RH, 90% RH to 5% RH at a scan rate of 5% RH/step. The mass was measured every two minutes and the RH was changed to the next value (+/−5% RH) when the mass of the sample was stable to within 0.01% for 5 consecutive points."}}, "data": [{"smiles": "CN(CCN1CCC(OC(=O)Nc2ccccc2-c2ccccc2)CC1)C(=O)c1ccc(CN2CCC(C(N)=O)CC2)cc1.O=P(O)(O)O.O=P(O)(O)O", "note": "[Example 3, Crystalline Diphosphate Salt of Biphenyl-2-ylcarbamic Acid 1-(2-{[4-(4-Carbamoylpiperidin-1-ylmethyl)benzoyl]methylamino}ethyl)piperidin-4-yl Ester]", "values": [{"measurement": "solid state stability: change in chemical purity", "setting": "[1]", "value": "no detectable change in chemical purity"}, {"measurement": "degradation of solution after storage", "setting": "[2]; 0.5 mg/mL freebase equivalents in 10 mM citrate buffered normal saline, one month at 40° C./75% RH", "value": "Less than 0.5%"}, {"measurement": "solubility of the crystalline salt", "setting": "[2]; 10 mM citrate buffered normal saline", "value": "greater than 40 mg/mL of freebase equivalent"}, {"measurement": "temperature below which no thermal decomposition occurs", "setting": "[3]", "value": "≥ 150", "unit": "°C"}, {"measurement": "sorption/desorption profile and hygroscopicity", "setting": "[4]", "value": "reversible sorption/desorption profile with low hygroscopicity"}, {"measurement": "weight gain when exposed to 2-90% RH", "setting": "[4]", "value": 3.3, "unit": "%"}, {"measurement": "weight gain in the humidity range of 40-75% RH", "setting": "[4]", "value": 0.6, "unit": "%"}]}, {"smiles": "CN(CCN1CCC(OC(=O)Nc2ccccc2-c2ccccc2)CC1)C(=O)c1ccc(CN2CCC(C(N)=O)CC2)cc1.O=C(O)C(=O)O.O=C(O)C(=O)O", "note": "[Example 7, Crystalline Dioxalate Salt of Biphenyl-2-ylcarbamic Acid 1-(2-{[4-(4-Carbamoylpiperidin-1-ylmethyl)benzoyl]methylamino}ethyl)piperidin-4-yl Ester]", "values": [{"measurement": "sorption/desorption profile and hygroscopicity", "setting": "[4]", "value": "reversible sorption/desorption profile with low hygroscopicity"}, {"measurement": "weight gain when exposed to 2-90% RH", "setting": "[4]", "value": 5.3, "unit": "%"}, {"measurement": "weight gain in the humidity range of 40-75% RH", "setting": "[4]", "value": 1.1, "unit": "%"}]}, {"smiles": "CN(CCN1CCC(OC(=O)Nc2ccccc2-c2ccccc2)CC1)C(=O)c1ccc(CN2CCC(C(N)=O)CC2)cc1", "note": "[Example 11, Crystalline Freebase Biphenyl-2-ylcarbamic Acid 1-(2-{[4-(4-Carbamoylpiperidin-1-ylmethyl)benzoyl]methylamino}ethyl)piperidin-4-yl Ester (Form II)]", "values": [{"measurement": "temperature below which no thermal decomposition occurs", "setting": "[3]", "value": "≥ 75", "unit": "°C"}, {"measurement": "sorption/desorption profile and hygroscopicity", "setting": "[4]", "value": "reversible sorption/desorption profile with low hygroscopicity"}, {"measurement": "weight gain when exposed to 2-90% RH", "setting": "[4]", "value": 9, "unit": "%"}, {"measurement": "weight gain in the humidity range of 40-75% RH", "setting": "[4]", "value": 1.3, "unit": "%"}]}, {"smiles": "CN(CCN1CCC(OC(=O)Nc2ccccc2-c2ccccc2)CC1)C(=O)c1ccc(CN2CCC(C(N)=O)CC2)cc1.O=S(=O)(O)O", "note": "[Example 5, Crystalline Monosulfate Salt of Biphenyl-2-ylcarbamic Acid 1-(2-{[4-(4-Carbamoylpiperidin-1-ylmethyl)benzoyl]methylamino}ethyl)piperidin-4-yl Ester]", "values": [{"measurement": "sorption/desorption profile and hygroscopicity", "setting": "[4]", "value": "reversible sorption/desorption profile with low hygroscopicity"}, {"measurement": "weight gain when exposed to 2-90% RH", "setting": "[4]", "value": 10, "unit": "%"}, {"measurement": "weight gain in the humidity range of 40-75% RH", "setting": "[4]", "value": 1.8, "unit": "%"}]}, {"smiles": "CN(CCN1CCC(OC(=O)Nc2ccccc2-c2ccccc2)CC1)C(=O)c1ccc(CN2CCC(C(N)=O)CC2)cc1", "note": "[Example 10, Crystalline Freebase Biphenyl-2-ylcarbamic Acid 1-(2-{[4-(4-Carbamoylpiperidin-1-ylmethyl)benzoyl]methylamino}ethyl)piperidin-4-yl Ester (Form I)]", "values": [{"measurement": "temperature below which no thermal decomposition occurs", "setting": "[3]", "value": "≥ 80", "unit": "°C"}, {"measurement": "sorption/desorption profile and hygroscopicity", "setting": "[4]", "value": "reversible sorption/desorption profile with low hygroscopicity"}, {"measurement": "weight gain when exposed to 2-90% RH", "setting": "[4]", "value": 10, "unit": "%"}, {"measurement": "weight gain in the humidity range of 40-75% RH", "setting": "[4]", "value": 1.2, "unit": "%"}]}]}
